Test results from patent publication US20110171683A1, “METHODS AND COMPOSITIONS FOR ENUMERATING ANTIBIOTIC-RESISTANT MICROORGANISMS” (priority 2008, published 2011).

Tested on: methicillin-resistant Staphylococcus aureus strain 560
Experiment: Colony counts on PETRIFILM plates and blood agar plates containing cefoxitin or oxacillin
Format: cell-based
Conditions: conclusion in words from Tables 1 and 2
Description: PETRIFILM Aerobic Count Plates were obtained from 3M Company (St. Paul, Minn.). DIFCO dehydrated tryptic soy agar (TSA) was obtained from BD Diagnostics (Sparks, Md.). Defibrinated sheep blood was obtained from Remel, Inc. (Lenexa, Kans.).
Phosphate-buffered saline (PBS), pH 7.5, was prepared from a 10× concentrate (OmniPur 6505 buffered saline; EMD Chemicals, Inc.; Gibbstown, N.J.) and was sterilized by autoclaving. Antibiotic stock solutions were prepared in deionized water and were sterilized by passage through a 0.22 μm filter.
Sheep blood agar containing cefoxitin (SBA-Cf) was prepared to compare the recovery of antibiotic resistant microorganisms on agar media to the recovery of the antibiotic-resistant microorganisms in a thin-film culture device. Twenty grams of dehydrated TSA was mixed with 475 mL of deionized water and autoclaved. The molten agar was tempered at 50° C. Twenty-five milliliters of defibrinated sheep blood was added to the agar (to yield a final concentration of 5% sheep blood) and swirled to mix. Cefoxitin stock solution (0.5 mL of 4 mg/mL) was added to the agar and swirled to mix. […]
Bacterial strains were inoculated into tryptic soy broth and were incubated overnight at 37° C. […] All plates were incubated at 35° C. and the colonies on each plate were counted at 24±2 hours and 48±4 hours.

SMILES	Sensitivity or resistance of strain 560 to the antibiotic
Cc1onc(-c2ccccc2)c1C(=O)N[C@@H]1C(=O)N2[C@@H]1SC(C)(C)[C@@H]2C(=O)O [oxacillin]	resistant
CO[C@@]1(NC(=O)Cc2cccs2)C(=O)N2C(C(=O)O)=C(COC(N)=O)CS[C@@H]21 [cefoxitin]	sensitive
